2 sequences from patent US10815312B2, “Bifunctional peptide having capability to permeate cells and capability to regenerate muscles and use thereof” (Seoul National University R&DB Foundation, priority 2018, dated 2020) can be followed below.

Assay [1] concerns the target T1, intracellular HDAC5 (Mus musculus, UniProt Q9Z2V6).
T1 construct: endogenous in cells; host or cells: C2C12 muscle precursor cells
Put plainly: Binding ability to intracellular HDAC5 by immunoprecipitation. The note with it: C2C12 cells treated for 2 hours, immunoprecipitation with HDAC5 antibody, western blotting with FITC antibody (FIG. 2). The method, then:
Muscle precursor cells (C2C12) were transplanted at a density of 1.5×10^6/well in a 10 pi dish and cultured in EMEM (Eagle's Minimal Essential Medium, ATCC). The medium was replaced at 24-hour intervals until confluency of cells reached 50%. When the confluency was 50%, the medium was replaced with Essential 8 medium, and the cells were treated with the peptide of SEQ ID NO: 1 for 2 hours. Then, the binding ability to intracellular HDAC5 was identified by immunoprecipitation. The lysate harvested with RIPA buffer containing a protease inhibitor was quantified through a BCA assay. Each sample quantified with a minimum volume of 500 μl at a concentration of 1 μg/ml was collected in a microtube, 2 μg of HDAC5 first antibody was added thereto, and the mixture was reacted under rotation for 16 hours at 4° C. in a refrigerated state. 20 μl of protein A/G agarose beads were added and reacted at 4° C. for 3 hours. Then, the beads were centrifuged, washed three times with DPBS and heated at 85° C. for 5 minutes in a 2× sample buffer, and only the supernatant was obtained, followed by western blotting and identification using an FITC antibody.

The test system of assay [2] is mesenchymal stem cells. Briefly: Differentiation of stem cells into myocytes, gene expression of muscle differentiation markers by real-time RT-PCR. It is filed as cell-based. The note with it: 100 μM peptide, muscle differentiation medium, real-time RT-PCR (FIG. 3). As for the experimental part: 3×10^6 mesenchymal stem cells were cultured in a bacterial culture dish for 3 days to form spheroids. The medium used was low-glucose DMEM with 10% FBS and 1% P/S. After 3 days, the supernatant was removed and only the spheroids were collected and seeded in a cell culture dish coated with 10 ug/ml of collagen type I for 4 days. The medium used was DMEM/F12 with 1 ng/ml TGFb (transforming growth factor beta), 1×NEAA (nonessential amino acids) and 1×ITS (insulin-transferrin selenium). After 4 days, the medium was changed to low-glucose DMEM with 2% FBS and 10 ng/ml IGF-1 (insulin growth factor-1), differentiation was further induced for 2 weeks, and muscle differentiation markers were identified. The cells were treated with 100 μM of the group not treated with peptide using only a muscle differentiation medium (NT), 100 μM of the groups treated with the peptides of SEQ ID NOS: 1 to 8 and 100 μM of the control peptide (SEQ ID NO: 9) in order to determine the efficiency of expression of the muscle differentiation markers by the peptides. The levels of gene expression of dystrophin and myogenin, as muscle differentiation markers, were measured through real-time RT-PCR. The base sequences of the PCR primers used for amplification of respective genes are as follows.

T1 sequence (Q9Z2V6 whole entry): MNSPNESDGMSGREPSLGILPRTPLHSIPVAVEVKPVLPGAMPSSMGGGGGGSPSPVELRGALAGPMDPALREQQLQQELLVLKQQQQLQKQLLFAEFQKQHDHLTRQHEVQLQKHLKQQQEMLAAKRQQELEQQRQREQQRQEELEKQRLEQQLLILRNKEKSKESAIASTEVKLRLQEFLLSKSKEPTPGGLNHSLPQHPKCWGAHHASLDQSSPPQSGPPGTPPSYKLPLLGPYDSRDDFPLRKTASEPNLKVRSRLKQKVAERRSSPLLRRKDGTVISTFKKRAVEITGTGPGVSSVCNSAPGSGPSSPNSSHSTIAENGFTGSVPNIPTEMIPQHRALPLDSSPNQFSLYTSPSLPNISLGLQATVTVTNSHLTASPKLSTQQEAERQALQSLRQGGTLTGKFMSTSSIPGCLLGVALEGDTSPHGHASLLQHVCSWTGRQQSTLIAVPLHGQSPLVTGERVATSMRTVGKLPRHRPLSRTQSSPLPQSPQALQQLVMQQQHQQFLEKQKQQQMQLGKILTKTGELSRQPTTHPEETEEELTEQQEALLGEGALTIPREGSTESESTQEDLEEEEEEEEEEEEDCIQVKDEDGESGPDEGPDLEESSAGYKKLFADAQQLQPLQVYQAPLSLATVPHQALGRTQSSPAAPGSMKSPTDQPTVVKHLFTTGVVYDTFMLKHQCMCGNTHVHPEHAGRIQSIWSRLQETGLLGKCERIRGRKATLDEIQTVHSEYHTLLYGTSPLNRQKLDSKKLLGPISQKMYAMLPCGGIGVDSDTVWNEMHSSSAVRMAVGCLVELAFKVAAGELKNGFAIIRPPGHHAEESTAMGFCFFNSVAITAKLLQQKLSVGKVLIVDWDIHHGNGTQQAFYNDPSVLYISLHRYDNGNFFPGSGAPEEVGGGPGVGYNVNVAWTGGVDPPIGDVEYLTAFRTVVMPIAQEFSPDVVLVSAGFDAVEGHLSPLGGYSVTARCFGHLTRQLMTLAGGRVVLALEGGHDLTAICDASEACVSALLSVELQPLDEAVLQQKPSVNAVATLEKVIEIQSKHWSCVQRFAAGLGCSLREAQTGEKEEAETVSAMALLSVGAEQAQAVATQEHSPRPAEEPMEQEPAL

As for GKCSTRGRKCCRRKK [SEQ ID NO: 1], the “binding to intracellular HDAC5” value in assay [1] was “binds to intracellular HDAC5”. Turning to “GLRSKSKKFRRPDIQYPDA (Control peptide C1) [SEQ ID NO: 9]”, in assay [2], the “gene expression of dystrophin” value is reported as “did not exhibit an increase in gene expression” and the “gene expression of myogenin” value was “did not exhibit an increase in gene expression”.
